For one assay, the target named is KRas G12D (Homo sapiens, UniProt P01116, G12D). Nature of the assay: biochemical.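 Also: TR-FRET displacement binding assay on KRas, read after a one-hour incubation at room temperature, IC50 fitted from percent-of-control values.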
The next assay has as its target KRas G12V (Homo sapiens, UniProt P01116, G12V). Nature of the assay: biochemical.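 Also: KRas binding measured by TR-FRET displacement at room temperature, IC50 fitted from percent of control values.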
The next assay deals with KRas G12R (Homo sapiens, UniProt P01116, G12R). As to the kind of experiment: biochemical.
For the next assay, the system named is pERK in MKN1 cells. Nature of the assay: Inhibition of KRas phosphorylation of ERK (Cisbio HTRF pERK assay). Particulars: Homo sapiens, MKN-1, 3 h, read-out: Inhibition (HTRF IC50) of KRas-mediated Phosphorylation of ERK, MKN1. In general terms: In TR-FRET formats the signal depends on donor and acceptor labels being close together.
The test system of the next assay is pERK in PSN1 cells. The description is as above. Particulars: Homo sapiens, PSN1, 3 h, read-out: Inhibition (HTRF IC50) of KRas-mediated Phosphorylation of ERK, PSN1.
A further assay deals with pERK in ASPC1 cells. The assay is described as above. Particulars: Homo sapiens, ASPC1, read-out: Inhibition (HTRF IC50) of KRas-mediated Phosphorylation of ERK, AsPC-1.
The next assay relates to pERK in H727 cells. The description is as above. Conditions: Homo sapiens, NCI-H727, read-out: Inhibition (HTRF IC50) of KRas-mediated Phosphorylation of ERK, H727.
The test system of a further assay is pERK in A549 cells. Described as above. Conditions: Homo sapiens, A549, read-out: Inhibition (HTRF IC50) of KRas-mediated Phosphorylation of ERK, A549.
The test system of the next assay is pERK in HCT116 cells. Described as above. Conditions: Homo sapiens, HCT-116, read-out: Inhibition (HTRF IC50) of KRas-mediated Phosphorylation of ERK, HCT116.
A further assay concerns pERK in H460 cells. The description is as above. Conditions: Homo sapiens, NCI-H460, read-out: Inhibition (HTRF IC50) of KRas-mediated Phosphorylation of ERK, H460.
Assay [1] concerns phospho-ERK in AsPC-1 (G12D) cells. As to the kind of experiment: Inhibition of KRas-mediated phosphorylation of ERK (in-cell western). Conditions: Homo sapiens, ASPC1, 3 h, 3 hours compound, phospho-ERK normalized to GAPDH. It is filed as cell-based. In a few lines: (§1)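 IC50 came from 4-parameter dose-response fits of phospho-ERK (Thr202/Tyr204)/GAPDH signal, expressed as % DMSO control. Compounds were applied for 3 h at 0.5% DMSO before fixation, methanol permeabilization and antibody imaging by in-cell western.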

Assay [2] deals with phospho-ERK in NCI-H460 (Q61H) cells. Described as above. It is filed as cell-based. Particulars: Homo sapiens, NCI-H460, 3 h, 3 hours compound, phospho-ERK normalized to GAPDH. The essentials:
as §1

Assay [3] relates to phospho-ERK in NCI-H727 (G12V) cells. The assay is described as above. It is filed as cell-based. Particulars: Homo sapiens, NCI-H727, 3 h, 3 hours compound, phospho-ERK normalized to GAPDH. In a few lines:
as §1

A further assay addresses KRas G12A (Homo sapiens, UniProt P01116, G12A). Nature of the assay: biochemical.
The target of the next assay is KRas G12S (Homo sapiens, UniProt P01116, G12S). Nature of the assay: biochemical.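 Also: TR-FRET displacement binding to KRas, read after one hour incubation at room temperature, IC50 from four-parameter fit of percent of control.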
Another assay concerns the target KRas G12C (Homo sapiens, UniProt P01116, G12C). As to the kind of experiment: biochemical.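 Also: binding to KRas assessed by TR-FRET displacement after one hour incubation at room temperature, potency fitted from percent-of-control values.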
The target in the next assay is KRas WT (Homo sapiens, UniProt P01116). Nature of the assay: biochemical.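 Also: binding to KRas read as TR-FRET displacement after a one-hour room-temperature incubation, IC50 derived from percent-of-control values.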
The next assay deals with T1, KRas G13D (Homo sapiens, UniProt P01116, G13D).
T1 construct: Biotinylated KRas (corresponding to amino acids 1-169, produced at Accelegan Inc.); biotin (biotinylated); purchased Accelegan Inc
As to the kind of experiment: KRas binding assay (TR-FRET displacement).

The target of a further assay is T2, KRas Q61H (Homo sapiens, UniProt P01116, Q61H).
T2 construct: Biotinylated KRas (corresponding to amino acids 1-169, produced at Accelegan Inc.); biotin (biotinylated); purchased Accelegan Inc
As to the kind of experiment: KRas binding assay (TR-FRET displacement).

A value given as a limit tells only on which side of the number the result lay.

These results are taken from patent US12398154B2, “Azaquinazoline pan-KRas inhibitors” (Mirati Therapeutics, Inc., priority 2020, dated 2025).

What is called IC50 is the concentration needed to halve the response being measured.

KRas G12D, sequence (P01116 1-169 isoform P01116-2 G12D): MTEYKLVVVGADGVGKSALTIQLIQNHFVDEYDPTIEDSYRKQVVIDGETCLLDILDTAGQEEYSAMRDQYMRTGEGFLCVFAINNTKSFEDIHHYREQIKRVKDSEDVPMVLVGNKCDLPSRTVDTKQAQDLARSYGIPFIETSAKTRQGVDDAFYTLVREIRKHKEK
KRas G12V, sequence (P01116 1-169 isoform P01116-2 G12V): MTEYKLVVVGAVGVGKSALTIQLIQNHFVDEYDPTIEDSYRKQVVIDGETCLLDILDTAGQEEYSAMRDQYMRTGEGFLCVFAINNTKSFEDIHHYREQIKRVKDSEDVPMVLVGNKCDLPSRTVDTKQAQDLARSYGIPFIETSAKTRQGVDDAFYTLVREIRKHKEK
KRas G12R, sequence (P01116 1-169 isoform P01116-2 G12R): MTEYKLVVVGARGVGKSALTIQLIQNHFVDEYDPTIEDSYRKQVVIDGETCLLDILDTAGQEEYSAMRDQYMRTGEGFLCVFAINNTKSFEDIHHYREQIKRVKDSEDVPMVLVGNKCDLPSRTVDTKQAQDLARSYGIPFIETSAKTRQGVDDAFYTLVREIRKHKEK
KRas G12C, sequence (P01116 1-169 isoform P01116-2 G12C): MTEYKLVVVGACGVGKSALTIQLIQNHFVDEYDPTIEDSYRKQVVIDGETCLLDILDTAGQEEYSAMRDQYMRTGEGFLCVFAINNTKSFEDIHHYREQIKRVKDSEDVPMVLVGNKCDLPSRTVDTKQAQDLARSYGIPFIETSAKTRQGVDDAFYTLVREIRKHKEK
KRas G12S, sequence (P01116 1-169 isoform P01116-2 G12S): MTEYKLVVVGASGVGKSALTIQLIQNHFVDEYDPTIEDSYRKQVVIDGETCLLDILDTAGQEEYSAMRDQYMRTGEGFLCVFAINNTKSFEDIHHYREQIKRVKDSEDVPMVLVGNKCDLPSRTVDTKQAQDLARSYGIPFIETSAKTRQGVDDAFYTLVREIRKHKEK
KRas WT, sequence (P01116 1-169 isoform P01116-2): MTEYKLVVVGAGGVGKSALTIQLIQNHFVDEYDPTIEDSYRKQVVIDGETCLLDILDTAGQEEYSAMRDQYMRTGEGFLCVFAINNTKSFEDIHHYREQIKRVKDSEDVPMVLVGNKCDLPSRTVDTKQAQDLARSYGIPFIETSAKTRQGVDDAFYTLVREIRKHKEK
KRas G12A, sequence (P01116 1-169 isoform P01116-2 G12A): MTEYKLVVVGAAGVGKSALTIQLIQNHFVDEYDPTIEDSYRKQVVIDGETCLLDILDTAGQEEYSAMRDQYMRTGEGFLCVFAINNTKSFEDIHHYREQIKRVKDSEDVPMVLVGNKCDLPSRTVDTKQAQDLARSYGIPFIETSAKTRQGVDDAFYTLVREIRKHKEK
T2 sequence (P01116 1-169 isoform P01116-2 Q61H): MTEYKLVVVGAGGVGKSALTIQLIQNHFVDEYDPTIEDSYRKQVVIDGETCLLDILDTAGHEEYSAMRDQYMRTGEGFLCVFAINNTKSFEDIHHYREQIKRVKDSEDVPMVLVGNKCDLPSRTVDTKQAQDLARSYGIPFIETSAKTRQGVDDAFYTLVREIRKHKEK
T1 sequence (P01116 1-169 isoform P01116-2 G13D): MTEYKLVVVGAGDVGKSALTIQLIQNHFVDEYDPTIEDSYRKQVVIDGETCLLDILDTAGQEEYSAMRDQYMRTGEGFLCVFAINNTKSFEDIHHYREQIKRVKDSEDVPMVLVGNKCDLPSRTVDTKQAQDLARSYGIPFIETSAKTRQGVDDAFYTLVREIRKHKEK

Turning to `CN(C)CC1(COc2nc(N3CCCC4(CNS(=O)(=O)N4)C3)c3cnc(-c4cc(O)cc5ccc(F)c(Cl)c45)c(F)c3n2)CC1` (stereo not shown) [Example 428, 7-(7-(8-chloro-7-fluoro-3-hydroxynaphthalen-1-yl)-2-((1-((dimethylamino)methyl)cyclopropyl)methoxy)-8-fluoropyrido[4,3-d]pyrimidin-4-yl)-2-thia-1,3,7-triazaspiro[4.5]decane 2,2-dioxide], the IC50 at KRas G12D is at most 2 nM; at KRas G12V, at most 2 nM; on KRas G12R it was at most 2 nM; with pERK in MKN1 cells, 28 nM; with pERK in PSN1 cells, 3280 nM; in the assay with pERK in ASPC1 cells, 339 nM. Moreover, the IC50 is 425 nM in the assay with pERK in H727 cells, 183 nM in the assay on pERK in A549 cells and 896 nM with pERK in HCT116 cells.

`CCc1c(F)ccc2cc(O)cc(-c3ncc4c(N5CCOCC(OC)C5)nc(OC[C@@]56CCCN5C[C@H](F)C6)nc4c3F)c12` (stereo partly drawn) [Example 499, 5-ethyl-6-fluoro-4-(8-fluoro-2-(((2R,7aS)-2-fluorotetrahydro-1H-pyrrolizin-7a(5H)-yl)methoxy)-4-(6-methoxy-1,4-oxazepan-4-yl)pyrido[4,3-d]pyrimidin-7-yl)naphthalen-2-ol]: the IC50 is 27 nM against KRas G12D; 8 nM at KRas G12V; 6 nM against KRas G12R; 13 nM in the assay with pERK in MKN1 cells; at least 10000 nM with pERK in PSN1 cells; 109 nM with pERK in ASPC1 cells. Also, the IC50 turned out to be 100 nM in the assay on pERK in H727 cells, 145 nM in the assay with pERK in A549 cells, 162 nM in the assay with pERK in H460 cells and 474 nM in the assay with pERK in HCT116 cells.

For `CCc1c(F)ccc2cc(O)cc(-c3ncc4c(N5CCCCC(S(C)(=O)=O)C5)nc(OC[C@@]56CCCN5C[C@H](F)C6)nc4c3F)c12` (stereo partly drawn) [Example 308, 5-ethyl-6-fluoro-4-(8-fluoro-2-(((2R,7aS)-2-fluorohexahydro-1H-pyrrolizin-7a-yl)methoxy)-4-(3-(methylsulfonyl)azepan-1-yl)pyrido[4,3-d]pyrimidin-7-yl)naphthalen-2-ol], the 50% inhibitory concentration (IC50) in [1] was 489 nM; in assay [2], 372 nM; in assay [3] it was 627 nM; at KRas G12D, 6 nM; against KRas G12V, 4 nM; against KRas G12R, 10 nM. In addition, the IC50 is 40 nM in the assay on pERK in MKN1 cells; at least 10000 nM in the assay with pERK in PSN1 cells; 155 nM in the assay on pERK in ASPC1 cells; 278 nM in the assay on pERK in H727 cells; 284 nM in the assay with pERK in HCT116 cells.

Take `Oc1cc(-c2ncc3c(N4CC5CC(O)CC4C5)nc(OC[C@@]45CCCN4C[C@H](F)C5)nc3c2F)c2c(Br)c(F)ccc2c1` (stereo partly drawn) [Example 403, 6-(7-(8-bromo-7-fluoro-3-hydroxynaphthalen-1-yl)-8-fluoro-2-(((2R,7aS)-2-fluorohexahydro-1H-pyrrolizin-7a-yl)methoxy)pyrido[4,3-d]pyrimidin-4-yl)-6-azabicyclo[3.2.1]octan-3-ol]: the IC50 is 6 nM at KRas G12D; at most 2 nM against KRas G12V; at most 2 nM at KRas G12R; 20 nM in the assay on pERK in MKN1 cells; 3820 nM in the assay with pERK in PSN1 cells; 426 nM with pERK in ASPC1 cells. Moreover, the IC50 with pERK in H727 cells turned out to be 79 nM; in the assay on pERK in A549 cells it was 96 nM; in the assay on pERK in H460 cells it was 182 nM; in the assay with pERK in HCT116 cells, 487 nM.

Turning to `CCc1c(F)ccc2cc(O)cc(-c3ncc4c(N5CC6C(=O)NC(=O)C6(C)C5)nc(OC[C@@]56CCCN5C[C@H](F)C6)nc4c3F)c12` (stereo partly drawn) [Example 482, 5-(7-(8-ethyl-7-fluoro-3-hydroxynaphthalen-1-yl)-8-fluoro-2-(((2R,7aS)-2-fluorohexahydro-1H-pyrrolizin-7a-yl)methoxy)pyrido[4,3-d]pyrimidin-4-yl)-3a-methyltetrahydropyrrolo[3,4-c]pyrrole-1,3(2H,3aH)-dione], the IC50 against KRas G12D was at most 2 nM; at KRas G12V it was at most 2 nM; against KRas G12R, 3 nM; in the assay with pERK in MKN1 cells, 26 nM; with pERK in PSN1 cells, at least 10000 nM; in the assay on pERK in ASPC1 cells, 546 nM. Moreover, the values for the IC50 in the assay with pERK in H727 cells, with pERK in A549 cells and in the assay on pERK in H460 cells were 128 nM, 390 nM and 124 nM, respectively.

`Cc1cc(N)nc(-c2ncc3c(N4CCCC(C)(O)C4)nc(OC[C@@]45CCCN4C[C@H](F)C5)nc3c2F)c1C(F)(F)F` (stereo partly drawn) [Example 459, 1-(7-(6-amino-4-methyl-3-(trifluoromethyl)pyridin-2-yl)-8-fluoro-2-(((2R,7aS)-2-fluorohexahydro-1H-pyrrolizin-7a-yl)methoxy)pyrido[4,3-d]pyrimidin-4-yl)-3-methylpiperidin-3-ol]: the IC50 is 9940 nM in assay [1]; at least 10000 nM in [2]; at least 10000 nM in assay [3]; 537 nM on KRas G12D; 766 nM against KRas G12V; 1010 nM on KRas G12R. The IC50 at KRas G12A worked out at 815 nM; on KRas G12S, 821 nM; against KRas G12C, 822 nM; at KRas WT, 688 nM.

On to `CCc1c(F)ccc2cc(O)cc(-c3ncc4c(N5CCC[C@@](C)(O)C5)nc(OC[C@@]56CCCN5C[C@H](F)C6)nc4c3F)c12` [Example 5], for which the IC50 in the assay on pERK in PSN1 cells came to 364 nM; in the assay with pERK in ASPC1 cells it was 2 nM; in the assay on pERK in A549 cells, 2 nM.

`C[C@H]1C[C@H]1c1c(Cl)cc2[nH]ncc2c1-c1ncc2c(N3CCC[C@@](C)(O)C3)nc(OC[C@@]34CCCN3C[C@H](F)C4)nc2c1F` (racemic) [Example 153, (3R)-1-(7-(6-chloro-5-(2-methylcyclopropyl)-1H-indazol-4-yl)-8-fluoro-2-(((2R,7aS)-2-fluorotetrahydro-1H-pyrrolizin-7a(5H)-yl)methoxy)pyrido[4,3-d]pyrimidin-4-yl)-3-methylpiperidin-3-ol]: the IC50 on KRas G13D was found to be 8 nM; at KRas Q61H, 7 nM; in assay [1] it was 233 nM; in assay [2], 306 nM; in assay [3], 500 nM; against KRas G12D, 6 nM. Further, the IC50 on KRas G12V was determined as 5 nM; against KRas G12R, 10 nM; against KRas G12A, 7 nM; at KRas G12S it was 7 nM; against KRas G12C it was 7 nM; at KRas WT, 6 nM.

As to `Oc1cc(-c2ncc3c(N4CCC[C@]5(C4)C[C@H](O)C5)nc(OC[C@@]45CCCN4C[C@H](F)C5)nc3c2F)c2c(F)c(F)ccc2c1` (single isomer, unassigned) [Example 441], the IC50 in [1] is 119 nM; in assay [2], 70 nM; in assay [3], 139 nM; at KRas G12D it was 3 nM; against KRas G12V it was at most 2 nM; against KRas G12R it was at most 2 nM. Besides, the IC50 worked out at 6 nM in the assay on pERK in MKN1 cells and 2880 nM in the assay with pERK in PSN1 cells.
